In patent US20230337677A1, “ARYL AND PYRIDYL AMIDE PESTICIDES AND COMPOSITIONS THEREOF” (University of Florida Research Foundation, Incorporated, priority 2019, published 2023):

Legend:
[1] = system: Aedes aegypti mosquitoes, insecticide-susceptible Orlando strain; format: in vivo; settings: 1 h; for 1 h % Repellency, 100 μg/cm^2: screened at 100 μg/cm^2, strain not given
Protocol: The tubes as shown were held horizontally on the bench.
For assessing behavioral repellency (FIG. 1), Aedes aegypti mosquitoes were used from the insecticide-susceptible Orlando strain and the pyrethroid-resistant Puerto Rico strain. Sixteen female mosquitoes were transferred to a glass tube (12.5 cm long, 2.5 cm outer diameter) with the ends covered with netting. Each compound was dissolved in 1 mL of acetone and serial dilutions ranging from 30-0.01 μg/ml were made. Circular filter papers (5 cm^2) were saturated with 50 μL of each concentration and allowed 10 min for solvent evaporation. The filter papers were then placed in clear conical polypropylene caps and fixed to the end of the glass tubes. The netting prevented mosquito contact with the filter paper. The tubes were then aligned with a mark denoting the midline and the proportion of mosquitoes on the chemically treated side was scored for up to 60 min. At the end of the test, the tube was placed in a cage and the ability of the mosquitoes to fly out of the tube was assessed for 30 min. […] This post-test evaluated whether any non-responding mosquitoes (not repelled) resulted from intoxication or disorientation from the test chemical. For assessment of lethality, insects were held for 24 hr under constant exposure in glass tubes having treated filter papers.
Compounds were first screened at 100 μg/cm^2 for repellency and 24 h mortality.

[2] = system: Aedes aegypti mosquitoes, insecticide-susceptible Orlando strain; settings: 24 h; for 24 h % Mortality, 100 μg/cm^2: screened at 100 μg/cm^2, strain not given; for 24 h LC50, μg/cm^2: LC50 (OR)
[3] = system: Anopheles gambiae Akron kdr (Akdr) strain, resistant to pyrethroids; assay: Topical toxicity (24 hour mortality), An. gambiae Akdr; format: in vivo; settings: for An. gambiae RR (resistance ratio): 24 h LD50 resistant strain (AKDR)/24 h LD50 susceptible strain (G3)
Protocol: (§1) The Aedes aegypti strains Orlando (sensitive) as well as the Puerto Rico (PR, resistant to permethrin) were used. The Anopheles gambiae (G3 sensitive strain, as well as Akron kdr (Akdr) strain, resistant to pyrethroids were also assessed. The larvae were provided by the USDA, Gainesville Fl, and raised in a pan with tap water maintained at 28° C. Larvae were fed a ground liver and yeast mixture, and pupae were placed in emergence cages. Adults were held at 28° C. and provided with cotton balls soaked in 10% sugar water for rearing and for all bioassays.
(§2) Female adults from 3 to 6 days were used for the experiments. The drug was dissolved in ethanol and then applied with a micro-applicator on the thorax, between the legs: 200 nL of drug per female mosquito, with different concentrations of the drug; 10 mosquitos were treated together per concentration per replicate, and put together in a small container with free access to sweet water. Mortality, i.e. no visible movement, was assessed 24 hours after treatment. Every compound was assessed on at least 3 different cohorts of mosquitoes, and the LD50 values and slopes were determined with Probit analysis, corrected with Abbott's formula.

[4] = system: Aedes aegypti strain Orlando (sensitive); assay: Topical toxicity (24 hour mortality), Ae. aegypti Orlando; format: in vivo
Protocol: as §1, §2

[5] = system: Anopheles gambiae G3 sensitive strain; assay: Topical toxicity (24 hour mortality), An. gambiae G3; format: in vivo
Protocol: as §1, §2

[6] = topical application, 24 h mortality, female adults, pyrethroid-resistant Akdr strain
[7] = topical application, 24 h mortality, female adults, susceptible Orlando strain
[8] = topical application, 24 h mortality, female adults, susceptible strain G3

| SMILES | An. gambiae RR (resistance ratio) [3] | An. gambiae AKDR LD50 [3, 6] | Ae. aegypti OR LD50 [4, 7] | An. gambiae G3 LD50 [5, 8] | further results |
| --- | --- | --- | --- | --- | --- |
| CCOC(=O)Nc1ccccc1C(F)(F)F [GMR020] |  |  |  |  | 1 h % Repellency, 100 μg/cm^2 [1]: 16%; 24 h % Mortality, 100 μg/cm^2 [2]: 9% |
| C=CC(=O)Nc1ccccc1N [GMR022] |  |  |  |  | 1 h % Repellency, 100 μg/cm^2 [1]: −8%; 24 h % Mortality, 100 μg/cm^2 [2]: 16% |
| O=C(Nc1cc(Cl)nc(C(F)(F)F)c1)C(F)F [GMR034] | 1.1 | 23.8 ng/mg | 1454 ng/mg | 20.8 ng/mg |  |
| O=C(Nc1cc(Cl)nc(C(F)(F)F)c1)C(F)(F)F [GMR035] | 1.7 | 52.1 ng/mg | 106 ng/mg | 30.5 ng/mg |  |
| O=C(Nc1cc(Cl)nc(C(F)(F)F)c1)C(F)(F)C(F)(F)F [GMR036] | 0.7 | 10.0 ng/mg | 25 ng/mg | 13.5 ng/mg |  |
| O=C(Nc1cc(Cl)nc(C(F)(F)F)c1)C(F)(F)C(F)(F)C(F)(F)F [GMR037, N-(2-chloro-6-(trifluoromethyl)pyridin-4-yl)-2,2,3,3,4,4,4-heptafluorobutanamide] | 0.8 | 5.3 ng/mg | 17 ng/mg | 6.5 ng/mg |  |
| O=C(Nc1cc(Br)nc(Br)c1)C(F)F [GMR039] | 1.1 | 23.8 ng/mg | 2253 ng/mg | 20.8 ng/mg |  |
| O=C(Nc1cc(Br)nc(Br)c1)C(F)(F)F [GMR040] |  | >100 ng/mg | 1223 ng/mg | >100 ng/mg |  |
| O=C(Nc1cc(Br)nc(Br)c1)C(F)(F)C(F)(F)F [GMR041] |  | ~100 ng/mg | 50 ng/mg | ~100 ng/mg |  |
| O=C(Nc1cc(Br)nc(Br)c1)C(F)(F)C(F)(F)C(F)(F)F [GMR042] | 0.4 | 4.7 ng/mg | 24 ng/mg | 11.4 ng/mg |  |
| O=C(Nc1cc(F)nc(F)c1)C(F)F [GMR043] |  | >100 ng/mg | 2480 ng/mg | >100 ng/mg |  |
| O=C(Nc1cc(F)nc(F)c1)C(F)(F)F [GMR044] |  | >100 ng/mg | 1996 ng/mg | >100 ng/mg |  |
| O=C(Nc1cc(F)nc(F)c1)C(F)(F)C(F)(F)F [GMR045] |  | >100 ng/mg | 302 ng/mg | >100 ng/mg |  |
| O=C(Nc1cc(F)nc(F)c1)C(F)(F)C(F)(F)C(F)(F)F [GMR046] |  | >100 ng/mg | 300 ng/mg | >100 ng/mg |  |
| Cc1cc(NC(=O)C(F)F)cc(C)n1 [GMR047] |  | >100 ng/mg | >3000 ng/mg | >100 ng/mg |  |
| Cc1cc(NC(=O)C(F)(F)F)cc(C)n1 [GMR048] |  | >100 ng/mg | >1500 ng/mg | >100 ng/mg |  |
| Cc1cc(NC(=O)C(F)(F)C(F)(F)F)cc(C)n1 [GMR049] |  | >100 ng/mg | >3000 ng/mg | >100 ng/mg |  |

| SMILES | An. gambiae RR (resistance ratio) [3] | An. gambiae AKDR LD50 [3, 6] | Ae. aegypti OR LD50 [4, 7] | An. gambiae G3 LD50 [5, 8] | further results |
| --- | --- | --- | --- | --- | --- |
| Cc1cc(NC(=O)C(F)(F)C(F)(F)C(F)(F)F)cc(C)n1 [GMR050] |  | >100 ng/mg | >3000 ng/mg | >100 ng/mg |  |
| O=C(Nc1cc(Cl)nc(Cl)c1)C(F)(F)C(F)(F)C(F)(F)C(F)(F)C(F)(F)F [GMR051] | 0.7 | 3.7 ng/mg | 23.4 ng/mg | 5.2 ng/mg |  |
| O=C(CCCC(F)(F)F)Nc1cc(Cl)nc(Cl)c1 [GMR052] |  | >100 ng/mg | 2743 ng/mg | >100 ng/mg |  |
| O=C(Nc1cc(F)nc(F)c1)C(F)(F)C(F)(F)C(F)(F)C(F)(F)C(F)(F)F [GMR072] | 1.5 | 17 ng/mg | 114 ng/mg | 11.00 ng/mg |  |
| O=C(Nc1c(Cl)c(Cl)nc(Cl)c1Cl)C(F)(F)C(F)(F)C(F)(F)F [GMR074] | 0.8 | 8.6 ng/mg | 29 ng/mg | 11.00 ng/mg |  |
| O=C(Nc1cc(Cl)nc(Cl)c1)C(F)(F)C(F)(F)OC(F)(F)F [GMR084] | 1.8 | 11.00 ng/mg | 17.8 ng/mg | 6.04 ng/mg |  |
| CC(C)(C)OC(=O)N(C(=O)C(F)(F)C(F)(F)C(F)(F)F)c1cc(Cl)nc(Cl)c1 [GMR087] | 0.9 | 20.50 ng/mg | 54.6 ng/mg | 23.00 ng/mg |  |
| O=C1C2=C(CCCC2)C(=O)N1COC(=O)C(F)(F)C(F)(F)C(F)(F)F [GMR096] |  |  | 2538 ng/mg | >100 ng/mg |  |
| N#CC(F)(F)C(=O)Nc1cc(Cl)nc(Cl)c1 [GMR101] |  | >100 ng/mg | 1841 ng/mg | >100 ng/mg |  |
| O/N=C(\Nc1cc(Cl)nc(C(F)(F)F)c1)C(F)(F)C(F)(F)C(F)(F)F [GMR105] |  |  |  |  | 1 h % Repellency, 100 μg/cm^2 [1]: 24%; 24 h % Mortality, 100 μg/cm^2 [2]: 21% |
| O=C(Nc1ccccc1OC(F)(F)F)C(F)(F)C(F)(F)C(F)(F)F [GMR129] |  | ~1000 ng/mg | >6000 ng/mg | >1000 ng/mg | 1 h % Repellency, 100 μg/cm^2 [1]: 34% |
| CCC(=O)Nc1c(Cl)cncc1Cl [GMR131] |  |  |  |  | 1 h % Repellency, 100 μg/cm^2 [1]: −4%; 24 h % Mortality, 100 μg/cm^2 [2]: 6% |
| CC(C)CC(=O)Nc1cc(F)c(F)c(F)c1 [GMR141] |  |  |  |  | 1 h % Repellency, 100 μg/cm^2 [1]: 16%; 24 h % Mortality, 100 μg/cm^2 [2]: 19% |
| CCC(=O)Nc1cc(F)c(F)c(F)c1 [GMR143] |  |  |  |  | 1 h Repellency EC50, μg/cm^2 ([1]; (OR)): 23 μg/cm^2; 1 h % Repellency, 100 μg/cm^2 [1]: 88%; 24 h LC50, μg/cm^2 [2]: 95 μg/cm^2; 24 h % Mortality, 100 μg/cm^2 [2]: 53% |
| CC(=O)N(C(C)=O)c1ccccc1OC(F)(F)F [GMR169] |  | >1000 ng/mg |  | >1000 ng/mg | 1 h % Repellency, 100 μg/cm^2 [1]: 82% |
| O=C(Nc1cc(F)cc(F)c1)C(F)(F)C(F)(F)F [GMR188] |  |  |  |  | 24 h LC50, μg/cm^2 [2]: 4.9 μg/cm^2; 24 h % Mortality, 100 μg/cm^2 [2]: 81% |
| O=C(Nc1cc(Cl)nc(C(F)(F)F)c1)C(F)(F)C(F)(F)C(F)(F)F [compound 56] |  |  |  |  | An. gambiae AKDR LD50 ([3]; Table 5, topical, 24 h): 5.30 ng/mg; Ae. aegypti OR LD50 ([4]; Table 5, topical, 24 h): 17.30 ng/mg; An. gambiae G3 LD50 ([5]; Table 5, topical, 24 h): 6.50 ng/mg |
